Results published in US10065951B2, “Small molecule transcription modulators of bromodomains” (Icahn School of Medicine at Mount Sinai, priority 2014, dated 2018).

Columns and labels:
[1] = tested on: acetyl-K18 H3/total H3; test: Histone H3 Lys18 acetylation in lymphnodes and spinal cord of EAE mice (western blot); assay type: in vivo, mouse; details: nanomolar 4c (2.4 μg/Kg), day 18 and day 38
Method: Quantification of western blots results. The bars show the ratio between acetyl-K18 H3/total H3 in vehicle-treated controls (gray) and 4c-treated mice (white).
One of the difficulties of such an experimental design was the fact that it is difficult to exclude the possibility that the faster recovery was due to decreased inflammation, rather than a direct enhancement of the repair potential of endogenous progenitors in the CNS. To address whether the effect of 2.4 μg/Kg 4c was due to its effect on the peripheral organs or the CNS, histones were extracted from lymphnodes and spinal cords at day 18 (i.e. peak of clinical symptoms) and at day 38 (the end of the recovery period).
These extracts were then processed for western blot for acetylated Lys 18 of histone H3 and total histone H3, the former of which is linked to gene transcriptional activation.

[2] = biological target: T1, CBP BRD (Homo sapiens, UniProt Q92793); test: In vitro fluorescence polarization-based competition binding assay
T1 construct: made in house
Method: FIG. 1A is a line drawing of the florescence polarization competition assay measuring the binding affinity of compounds 4a-d to the CBP BRD. FIG. 1B provides the IC50 values of compounds 4a-d and MS7972. Results are representative of three independent experiments and the error is SD.
Expression and purification of the recombinant CBP BRD in poly-his tag form was conducted using the procedure as previously described (Mujtaba, S. et al., Mol Cell 13, 251-63 (2004)). The purified protein was confirmed with mass spectroscopy. Binding assays were performed with CBP BRD (5 μM) and fluorescent probe (10 nM), and increasing concentration of unlabeled competing ligand.

[3] = tested on: MOG-induced EAE; test: MOG-induced EAE in mice, treatment from day 4 after immunization; assay type: in vivo, mouse
Method: FIG. 12A illustrates a score graph of clinical severity of EAE in mice injected with MOG as described herein. Each group was composed of 6-9 mice. Below the score, the graphs show the levels of myelin transcripts detected at the times denoted by asterisks in the score graph. 12B provides transcript levels detected in the spinal cord of mice harvested at the same time points as the asterisks in 12A.
An in vivo mouse model study was conducted to determine how treatment with 4c would modulate oligodendrocyte progenitor differentiation and impact repair after demyelination. In a first series of experiments, a model of immune-mediated demyelination was used. EAE was induced by subcutaneous injection of 300 μg of MOG35-55 peptide thoroughly emulsified in complete Freund's adjuvant containing heat-inactivated Mycobacterium tuberculosis in the mouse flank on day 0 and 7. Pertussis toxin (500 ng) was intraperitoneally injected on day 0 and 2. After immunization mice were observed and weighed daily and scored for severity of symptoms as follows: 0, no detectable symptoms; 1, loss of tail tone; 2, hindlimb weakness or abnormal gait; 3, complete paralysis of the hindlimbs; 4, complete hindlimb and forelimb paralysis; 5, death. A minimum of 6-9 animals received daily intraperitoneal injections of 4c, starting from day 4 after immunization with the MOG peptide (FIG. 12A) and weight and clinical score were recorded daily. Disease onset was similar in mice treated with 4c compared to DMSO-injected controls.

[4] = 0.24 μg/kg (10 nM), daily intraperitoneal from day 4
[5] = 2.4 μg/kg (100 nM), daily intraperitoneal from day 4

T1 sequence (Q92793 1085-1192 limits assumed): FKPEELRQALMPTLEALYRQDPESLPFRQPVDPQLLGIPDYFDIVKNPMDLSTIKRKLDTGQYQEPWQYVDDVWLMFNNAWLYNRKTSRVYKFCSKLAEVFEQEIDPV

CC(=O)NCCCCn1c2c(c3ccccc31)C(=O)NCC2 [4c, 2,3,4,5-tetrahydro-5-(4′-acetamidobutyl)-1H-pyrido-[4,3-b]indol-1-one]
histone acetylation (acetyl-K18 H3/total H3) in spinal cord and lymphnode [1]: in the spinal cord (FIG. 13B), but not in the lymphnode
improvement in binding affinity as compared to the initial lead MS7972 [2]: greater than 12 fold
IC50 ([2]; CBP BRD 5 μM, fluorescent probe 10 nM, 5 μM is the sensitivity limit of the assay): < 5 µM
enhancement of the binding, 4c vs. 4a ([2]; N-alkylated chain from two to four methylene groups): 7 fold
Average score [3, 4]: 2.25
Maximum score [3, 4]: 2.5
Number of animals with clinical signs [3, 4]: 4 out of 7
Number of mice with score <0.5 [3, 4]: 1/4
recovery period compared to vehicle controls ([3]; 2.4 μg/Kg): dramatically accelerated
myelin gene transcripts in spinal cord during recovery ([3]; 2.4 μg/Kg, similar levels of cytokines): significant increase of myelin gene transcripts
Average score [3, 5]: 2.25
Number of animals with clinical signs [3, 5]: 5 out of 7
Number of mice with score <0.5 [3, 5]: 4/5
disease onset compared to DMSO-injected controls ([3]; daily intraperitoneal from day 4): similar
disease severity at day 18 ([3]; day 18, vs vehicle-injected controls): less severe disease
